“Also recorded” adds a separate entry of the source.
Tests used:
[1] = test system: ventral midbrain organoids; test: SAG dose curve for floor plate induction in ventral midbrain organoids (qPCR FOXA2); type: cell-based, human; conditions: day 4-11, with dual SMAD inhibition and Wnt activation; by day 20
Procedure: FIG. 2A-D: qPCR analysis of markers of ventral midbrain of the dose curving experiment to generate ventral midbrain organoids. Two separate dose curving experiments were performed, where first the correct dosage of sonic hedgehog activation was tested (FIG. 2A, floor plate marker FOXA2). Secondly, we performed qPCR to test for appropriate concentrations of posteriorization using Wnt activation. Dopaminergic neurons are born in the very ventral floor plate of the posterior midbrain, next to the midbrain-hindbrain boundary, thus the Forebrain and Midbrain marker OTX2 should still be expressed, whereas the hindbrain is OTX2 negative. We found a concentration of 0.8-1 μM sufficient to introduce midbrain (FIG. 2B), while the floor plate marker FOXA2 was still expressed (FIG. 2C). qPCR for the dopaminergic marker TH (Tyrosine hydroxylase, the rate-limiting enzyme for dopamine synthesis) confirmed this concentration of Wnt activation, with a sharp drop of TH expression starting at 1.2 μM CHIR (FIG. 2D).
All qPCR data are relative to the expression of TBP.
For ventral midbrain organoid preparation, cells were grown for 2-3 days after splitting in MG coated 6 well plates and dissociated using 600 μl Accutase. […] Cells were resuspended in 1 ml stem cell media +1:100 RI and counted. […]
Quantification was performed in excel by calculating ΔCt relative to TBP. […]

striatal organoids = test: SAG dose-response curve in presence of IWP2 for LGE patterning of striatal organoids; type: cell-based, human
Procedure: Panel C, D: Quantifications of GSX2^+ rosettes and PAX6^− rosettes, indicating LGE identity.
Panel E-F: Immunolabeling of CTIP2, an important early striatal marker, in two conditions with promising numbers of GSX2^+ rosettes, but low PAX6 expression.
For striatal organoid preparation, cells were grown for 2-3 days after splitting in MG coated 6 well plates and dissociated using 600 μl Accutase. 9000 cells were then transferred into 150 μl neural induction media containing 10 nM SAG and 2.5 μM IWP2 (SigmaAldrich, Cat. #10536) as well as 1:100 ROCK inhibitor. Media was exchanged on day 2 by replacing 100 μl media with 150 μl fresh NI media containing 10 nM SAG, 2.5 μM IWP2 and 1:100 ROCK inhibitor.
Striatal neurons are born majorly from the lateral ganglionic eminence (LGE), from where they migrate and form the developing striatum (Fjodorova, Noakes and Li, Neurogenesis, 2(1), 2015, Ornorati et al., Nat. Neurosci. 17, 1804-15, 2014). To pattern into LGE, we performed a dose curve experiment in a Wnt inhibitory context (IWP-2, which anteriorized and inhibits dorsal fate) similar to previous 2D differentiation approaches (Wu et al., Stem Cell Reports 11, 635-650, 2018). In brief, we activated sonic hedgehog signaling with the small molecule SAG at concentrations between 10 nM and 100 nM (FIG. 4B). We performed a SAG dose-response curve in the presence of the Wnt inhibitor IWP2 in an otherwise growth-factor free neural induction media.

[2] = lowest concentration of SAG (10 nM), with IWP2, day 28 organoids

## CN[C@H]1CC[C@H](N(Cc2cccc(-c3ccncc3)c2)C(=O)c2sc3ccccc3c2Cl)CC1 [SAG, 3-Chloro-N-[trans-4-(methylamino)cyclo-hexyl]-N-[[3-(4-pyridinyl)phenyl]methyl]benzo[b]thiophene-2-carboxamide]
[1]
  concentration sufficient to introduce maximal FOXA2 expression levels: 300 nM
Striatal organoids; 25 nM SAG treated organoids compared with SAG10 treated organoids
  CTIP2 expression: much lower; also recorded: significantly lower
Striatal organoids; [2]
  rosettes expressing the LGE marker GSX2: high level
  rosettes expressing the more dorsal marker PAX6: low number

Source: patent publication US20260185056A1, “TRIPLE TISSUE CULTURE FUSION” (IMBA - INSTITUT FÜR MOLEKULARE BIOTECHNOLOGIE GMBH, priority 2022, published 2026)
